Laboratory results taken from article PMC12197660 (Viruses, 2025).
Values after ≈ are worked out from the molar mass of the structure shown. Where two headings read alike, the source gives them in different places.

How the values were obtained:
plasma protein = assay: Plasma protein binding; assay type: in vitro ADME, mouse, rat, dog, monkey, and human; details: plasma
LogD = assay type: physicochemical
[1] = Plasma stability, cynomolgus monkey plasma; assay type: in vitro ADME; details: cynomolgus monkey, plasma
CES-1 = target: T1, CES-1 (Homo sapiens, UniProt P23141); assay: Enzyme hydrolysis phenotype, fraction metabolized by CES-1; assay type: in vitro ADME
T1 sequence (P23141 18-567): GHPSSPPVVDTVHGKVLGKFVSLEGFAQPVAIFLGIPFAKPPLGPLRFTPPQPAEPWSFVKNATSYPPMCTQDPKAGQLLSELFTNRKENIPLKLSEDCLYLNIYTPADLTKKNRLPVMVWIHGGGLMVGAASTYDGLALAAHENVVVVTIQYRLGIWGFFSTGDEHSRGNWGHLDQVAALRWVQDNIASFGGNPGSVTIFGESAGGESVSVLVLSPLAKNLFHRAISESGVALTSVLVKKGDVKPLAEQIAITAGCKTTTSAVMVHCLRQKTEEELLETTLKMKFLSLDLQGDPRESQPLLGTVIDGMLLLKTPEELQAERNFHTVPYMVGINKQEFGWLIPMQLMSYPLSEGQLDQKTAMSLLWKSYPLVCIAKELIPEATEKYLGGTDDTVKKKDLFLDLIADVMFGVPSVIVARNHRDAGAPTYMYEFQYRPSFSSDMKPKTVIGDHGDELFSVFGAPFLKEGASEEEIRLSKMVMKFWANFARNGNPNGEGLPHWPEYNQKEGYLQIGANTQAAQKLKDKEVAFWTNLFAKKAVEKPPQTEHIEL

[2] = test system: OATP1B1/3, P-gp, BCRP, ENT1/2, CNT3; assay: Transporter substrate assessment; assay type: in vitro ADME, human; details: human
[3] = in vivo, cyno; cited from earlier work
[4] = Permeability (MDCK A-to-B); assay type: in vitro ADME, canine; details: dog, MDCK-MDR1, pH 7.4
Solubility (PBS) = assay type: physicochemical; details: aqueous buffer
[5] = in vivo, iv; cited from earlier work
[6] = Radiolabeled metabolism and excretion in rats; assay type: in vivo; details: male, Sprague Dawley, rat, in vivo, iv
[7] = Hepatic S9 fraction stability; assay type: in vitro ADME, rat, dog, monkey, and human
[8] = cynomolgus monkey, in vivo, iv, 10 mg/kg, 24 h
[9] = Plasma stability, human plasma; assay type: in vitro ADME; details: human, plasma
[10] = test system: OATP1B1/3, P-gp, BCRP, ENT1/2, CNT3; details: cited from earlier work
CatA = target: T2, CatA (Homo sapiens, UniProt P10619); assay: Enzyme hydrolysis phenotype, fraction metabolized by CatA; assay type: in vitro ADME
T2 sequence (P10619 29-480): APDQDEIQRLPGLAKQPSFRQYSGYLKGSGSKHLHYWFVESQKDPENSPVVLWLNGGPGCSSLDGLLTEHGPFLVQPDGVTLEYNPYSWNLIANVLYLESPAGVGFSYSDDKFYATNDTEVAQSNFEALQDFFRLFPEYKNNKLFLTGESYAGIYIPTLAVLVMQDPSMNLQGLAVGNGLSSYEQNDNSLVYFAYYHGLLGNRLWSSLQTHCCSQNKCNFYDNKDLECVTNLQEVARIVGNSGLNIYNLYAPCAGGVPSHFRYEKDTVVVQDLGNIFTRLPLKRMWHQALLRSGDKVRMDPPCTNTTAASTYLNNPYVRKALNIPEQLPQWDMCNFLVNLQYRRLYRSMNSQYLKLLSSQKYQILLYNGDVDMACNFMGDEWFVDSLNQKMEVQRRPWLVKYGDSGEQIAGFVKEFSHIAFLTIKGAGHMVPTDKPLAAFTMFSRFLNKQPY

[11] = cited from earlier work
[12] = Plasma stability (Table 1, across species); assay type: in vitro ADME, mouse, rat, dog, monkey, and human
in vivo = assay type: in vivo, cynomolgus monkeys; details: cynomolgus monkey, in vivo, iv, 10 mg/kg

CCC(CC)COC(=O)[C@H](C)N[P@](=O)(OC[C@H]1O[C@@](C#N)(c2ccc3c(N)ncnn23)[C@H](O)[C@@H]1O)Oc1ccccc1 [RDV, remdesivir, reference compound]
Plasma protein binding (% free) (plasma protein): 6–14 % free | logD (LogD): 2.5 | half-life at 2 µM [1]: 6.42 h | Enzyme hydrolysis phenotype (fm), CES-1 (CES-1): 80% | Transporter substrate [2]: OATP1B1/P-gp | Oral bioavailability [3]: < 1% | Papp A→B at 120 min [4]: 1.32 ×10⁻⁶ cm/s | solubility (Solubility (PBS)): 40.1 µg/mL (≈ 66.5 µM) | Fecal excretion, of administered dose [5]: ~18% | Total mean [14C] dose recovery [5]: greater than 90% | Urinary excretion, mean [5]: 74% | Fecal excretion, of administered dose [6]: approximately 25% | Total mean [14C] dose recovery [6]: greater than 90% | Urinary excretion, mean [6]: 61% | S9 Stability, Hepatic [7]: Unstable | Lung GS-443902 C24h [8]: 1.39 ± 0.15 nmol/g | PBMC GS-443902 C24h [8]: 31.0 ± 11.8 µM | half-life at 2 µM [9]: 1.3 h | Transporter substrate (text) [10]: substrate for both OATP1B1 and P-gp | Enzyme hydrolysis phenotype (fm), CatA (CatA): 10% | Stability in hepatic S9 [11]: unstable | Plasma stability [12]: Moderately Stable (unstable in mouse, rat) | Vd (in vivo): 0.504 ± 0.175 L/kg | clearance (in vivo): 40 mL/min/kg | Predicted human hepatic extraction: > 0.9
